In patent US9809602B2, “Compounds for treating viral infections” (INSTITUT PASTEUR KOREA, priority 2014, dated 2017) one finds EC50 data, which are given here for 50 compounds.

Structures are written as SMILES.

A word on the EC50: it is the concentration that produces a half-maximal response.

For the first experiment, the system named is genotype 1/2 chimeric cell culture derived HCV (HCVcc). Briefly: Genotype 1/2 chimeric HCVcc assay (nano-luciferase, HCV replication). The class given is cell-based. As to conditions: Hepatitis C virus. The essentials:
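EC50 (replication, nano-luciferase) and CC50 (viability, cellular ATP) were determined by non-linear regression 72 h after infection with a reporter HCVcc chimera carrying genotype 1a structural and 2a JFH-1 non-structural proteins. Compound was applied to Huh-7.5 cells 2 h before inoculation.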
The compound `O=C(NCCCN1CCC(N2CCCCC2)CC1)c1ccc(-c2ccc3c(c2)OCO3)cc1` [Compound 1130] had a concentration for a half-maximal effect (EC50) of 0.1 to 1 µM. Turning to `O=C(NCCCN1CCC(N2CCCCC2)CC1)c1ccc(Oc2ccc(C(F)(F)F)cc2)cc1` [Compound 1111], the 50% effective concentration (EC50) is 0.1 to 1 µM. Still for that read-out and setting: with `Cc1ccc(-c2ccc(C(=O)NCCCN3CCC(N4CCCCC4)CC3)cc2)c(F)c1` [Compound 1135] the figure was 0.1 to 1 µM. With `CC(C)(C)c1ccc(-c2ccc(C(=O)NCCCN3CCC(N4CCCCC4)CC3)cc2)cc1` [Compound 1124], the half-maximal effective concentration (EC50) fell in the range of 0.1 to 1 µM. Still for that read-out and setting: the value for `O=C(NCCCN1CCC(N2CCCCC2)CC1)c1ccc(Oc2cccc(C(F)(F)F)c2)cc1` [Compound 1108] was 0.1 to 1 µM; that for `Cc1ccccc1-c1ccc(C(=O)NCCCN2CCC(N3CCCCC3)CC2)cc1` [Compound 1015] was 0.1 to 1 µM. Consider `COc1cccc(-c2ccc(C(=O)NCCCN3CCC(N4CCCCC4)CC3)cc2)c1` [Compound 1018], for which the concentration for a half-maximal effect (EC50) lay in the range of 0.1 to 1 µM. `COc1ccc(Oc2ccc(C(=O)NCCCN3CCC(N4CCCCC4)CC3)cc2)cc1` [Compound 1032] gave a 50% effective concentration (EC50) of 0.1 to 1 µM. On the same count and under the same terms, the value for `O=C(NCCCCCCN1CCC(N2CCCCC2)CC1)c1ccc(Oc2ccccc2)cc1` [Compound 1088] was 0.1 to 1 µM. For the compound `O=C(NCCCN1CCC(C2CCNCC2)CC1)c1ccc(Oc2ccccc2)cc1` [Compound 1072], the EC50 was 1 to 10 µM.

Staying with this experiment, now noted: Hepatitis C virus, Huh7.5, 72 h.
In turn, `CCOC(=O)c1c(NC(=O)NCc2c(-n3cccc3)sc(C(=O)N(C)C)c2C)sc2c1CCCC2` [Compound 52] yielded an EC50 of 0.1 to 1 µM. Still for that read-out and setting: the value for `CC(C)(C)OC(=O)c1c(NC(=O)NCc2c(C(F)(F)F)sc3c2CCNC3)sc2c1CCOC2F` (centres unmarked) [Compound 335] was under 0.1 µM; that for `CC(C)(C)OC(=O)c1c(NC(=O)NCc2c(-c3ccccc3F)sc3c2CCNC3)sc2c1CCCC2` [Compound 227] was 0.1 to 1 µM; that for `CC(C)(C)OC(=O)c1c(NC(=O)NCc2c(C3CC3)sc3c2CCNC3)sc2c1CCCC2` [Compound 285] was under 0.1 µM. For the compound `NC(=O)c1c(NC(=O)NCc2c(C(F)(F)F)sc3c2CCNC3)sc2c1CCCC2` [Compound 374], the half-maximal effective concentration (EC50) was 1 to 10 µM. Consider `CCOC(=O)c1c(NC(=O)NCc2ccsc2)sc2c1CCCC2` [Compound 3], for which the EC50 is under 0.1 µM. Still for that read-out and setting: with `CCOC(=O)c1c(NC(=O)NCc2c(Br)sc3c2CCNC3)sc2c1C(C)CCC2` (centres unmarked) [Compound 164] the figure was under 0.1 µM; with `CCOC(=O)c1c(NC(=O)NCc2c(Br)sc3c2CCNC3)sc2c1CCOC2` [Compound 163], under 0.1 µM; with `CC(C)(C)OC(=O)c1c(NC(=O)NCc2c(-c3ccccc3)sc3c2CCNC3)sc2c1CCCC2` [Compound 130], under 0.1 µM.

As to `CCOC(=O)c1c(NC(=O)NCc2c(-n3cccc3)sc3c2CCN(CC(C)C)C3)sc2c1CCCC2` [Compound 27], the EC50 is under 0.1 µM.

`CN(C)CCN1CCc2c(sc(C(F)(F)F)c2CNC(=O)Nc2sc3c(c2C(=O)OC(C)(C)C)CCCC3)C1` [Compound 355] returned an EC50 of under 0.1 µM. In turn, `CCNC(=O)c1c(NC(=O)NCc2c(-n3cccc3)sc3c2CCN(CC)C3)sc2c1CCCC2` [Compound 36] gave an EC50 of under 0.1 µM. As to `CCOC(=O)c1c(NC(=O)NCc2c(-n3cnc(C)n3)sc3c2CCNC3)sc2c1CCCC2` [Compound 87], the concentration for a half-maximal effect (EC50) fell in the range of 0.1 to 1 µM. For `CC(C)(C)OC(=O)c1c(NC(=O)NCc2c(C(F)(F)F)sc3c2CCNC3)sc2c1CCCC2` [Compound 117], the half-maximal effective concentration (EC50) is under 0.1 µM. The compound `N#Cc1c(NC(=O)NCc2c(-n3cccc3)sc3c2CCCC3)sc2c1CCCC2` [Compound 6] came in with a concentration for a half-maximal effect (EC50) of 1 to 10 µM. Regarding `CCOC(=O)c1cc(-c2ccccc2)sc1NC(=O)NCc1c(-n2cccc2)sc2c1CCN(CC)C2` [Compound 40], the EC50 was 0.1 to 1 µM. On the same count and under the same terms, with `CCOC(=O)c1c(NC(=O)NCc2c(-n3cccc3)sc3c2CCNC3)sc2c1CCCCC2` [Compound 113] the figure was 0.1 to 1 µM; with `O=C(NCc1c(-n2cccc2)sc2c1CCNC2)Nc1sc2c(c1C(=O)OC1CCCCC1)CCCC2` [Compound 273], under 0.1 µM. Same read-out and setting: with `CCN1CCc2c(sc(C(F)(F)F)c2CNC(=O)Nc2sc3c(c2C(=O)OC(C)(C)C)CCCC3)C1` [Compound 119] the figure was under 0.1 µM; with `CC1CCc2c(sc(NC(=O)NCc3c(Br)sc4c3CCNC4)c2C(=O)OC(C)(C)C)C1` (centres unmarked) [Compound 213], under 0.1 µM; with `Cc1sc(NC(=O)NCc2c(-c3ccc(F)cc3)sc3c2CCNC3)c(C(=O)OC(C)(C)C)c1C` [Compound 368], 0.1 to 1 µM. The same measure, in the same setting: with `CC(C)OC(=O)c1c(NC(=O)NCc2c(-n3cccc3)sc3c2CCNC3)sc2c1CCCC2` [Compound 141] the figure was under 0.1 µM; with `CCN1CCc2c(sc(-n3cccc3)c2NC(=O)Nc2sc3c(c2C(=O)OC(C)(C)C)CCCC3)C1` [Compound 105], 1 to 10 µM; with `CCOC(=O)c1c(NC(=O)NCc2c(-n3cccc3)sc3c2CCN(C)C3)sc2ccccc12` [Compound 66], under 0.1 µM. `Cc1sc(NC(=O)NCc2c(-c3ccc(Cl)cc3)sc3c2CCNC3)c(C(=O)OC(C)(C)C)c1C` [Compound 369] gave an EC50 of under 0.1 µM. The same measure, in the same setting: the value for `CCOC(=O)c1c(NC(=O)NCc2c(-n3cccc3)sc3c2CCN(CC)C3)sc2c1CCOC2` [Compound 41] was under 0.1 µM; that for `Cc1cc(C(=O)OC(C)(C)C)c(NC(=O)NCc2c(C(F)(F)F)sc3c2CCNC3)s1` [Compound 347] was under 0.1 µM. The compound `CCN1CCc2c(sc(Br)c2CNC(=O)Nc2sc3c(c2C(=O)OC2CCCC2)CCCC3)C1` [Compound 263] had an EC50 of under 0.1 µM. The same measure, in the same setting: with `Cc1sc(NC(=O)NCc2c(-c3cccc(Cl)c3)sc3c2CCNC3)c(C(=O)OC(C)(C)C)c1C` [Compound 363] the figure was under 0.1 µM.

In the case of `CC(C)(C)OC(=O)c1c(NC(=O)NCc2csc3c2CCNC3)sc2c1CCCC2` [Compound 124], the half-maximal effective concentration (EC50) was under 0.1 µM. Regarding `CCN1CCc2c(sc(-n3cccc3)c2CNC(=O)Nc2sc3c(c2C(=O)OC(C)(C)C)CCCCC3)C1` [Compound 115], the EC50 is under 0.1 µM. The same measure, in the same setting: the value for `CCN1CCc2c(sc(-n3cccc3)c2CNC(=O)Nc2sc3c(c2C(=O)OC(C)(C)C)CCC(C)C3)C1` (centres unmarked) [Compound 211] was under 0.1 µM; that for `CCOC(=O)c1c(NC(=O)NCc2c(Br)sc3c2CCN(CC)C3)sc2c1CCCC2` [Compound 110] was under 0.1 µM; that for `CCN1CCc2c(sc(C(F)(F)F)c2CNC(=O)Nc2sc3c(c2C(=O)OC(C)(C)C)CCCCC3)C1` [Compound 303] was under 0.1 µM. Compound `CNCc1sc(-n2cccc2)c(CNC(=O)Nc2sc3c(c2C(=O)OC(C)(C)C)CCCC3)c1C` [Compound 158] registered an EC50 of 0.1 to 1 µM. With `COC(=O)c1c(NC(=O)NCc2c(-n3cccc3)sc3c2CCN(C)C3)sc2c1CCCC2` [Compound 155], the EC50 is 0.1 to 1 µM. On the same count and under the same terms, the value for `CCOC(=O)c1c(NC(=O)NCc2c(-n3cccc3)sc3c2CCN(Cc2ccc(OC)cc2)C3)sc2c1CCCC2` [Compound 18] was under 0.1 µM; that for `C=CCCOC(=O)c1c(NC(=O)NCc2c(-n3cccc3)sc3c2CCNC3)sc2c1CCCC2` [Compound 276] was under 0.1 µM. Compound `CC(C)(C)OC(=O)c1ccsc1NC(=O)NCc1c(C(F)(F)F)sc2c1CCNC2` [Compound 343] showed a concentration for a half-maximal effect (EC50) of 0.1 to 1 µM. For the compound `C#CCN1CCc2c(sc(-n3cccc3)c2CNC(=O)Nc2sc3c(c2C(=O)OC(C)(C)C)CCCC3)C1` [Compound 325], the concentration for a half-maximal effect (EC50) was under 0.1 µM.
